Measured values as given in publication PMC9290910, “Neuropilin‐1 is required for endothelial cell adhesion to soluble vascular endothelial growth factor receptor 1” (The Febs Journal, 2021).
Entries after “also recorded” stand apart in the source; their conditions may differ.

Legend:
[1] = tested on: EC (HUVEC) adhesion to fibronectin; test: Cell adhesion assay, EC adhesion to fibronectin; format: cell-based, human
Procedure: (§1) Human umbilical vein endothelial cells (HUVEC) were isolated from freshly delivered umbilical cords, as previously described, cultured in Endothelial Cell Growth Medium‐2 Kit from Clonetics (EGM‐2, CC4176, Lonza, Basel, Switzerland), and used up to passage 6. For functional assays, HUVEC were resuspended in Endothelial Basal Medium‐2 (EBM‐2, CC3156, Lonza). A pool of cells derived from four different individuals was used.
(§2) Solid support for adhesion assay was prepared by incubating immunological 96‐multiwell plates with 20 µg·mL^−1 VEGFR‐1/Fc chimera, or fibronectin solubilized in PBS. After 2 h, the coating solution was removed, and the well surface was blocked with 3% BSA in PBS for 18 h, before plating ECs in serum‐free medium at 3 × 10^4 cells per well. After incubation at 37 °C for 1 h, the wells were washed with PBS and attached cells were fixed with 3% formaldehyde and stained with 0.5% crystal violet. Attachment efficiency was determined by quantitative dye extraction and spectrophotometric measurement of the absorbance at 540 nm, using a Microplate reader 3550‐UV (Bio‐Rad). In competition experiments, peptides Flt2‐11, scrambled Flt2‐11, Flt2‐8 or Flt2‐5, at 20 µg·mL^−1, were added during the adhesion assay. Adhesion to peptide 12 was carried out by using maleic anhydride activated microplates (Reacti‐Bind, Pierce, Rockford, IL, USA) coated with 500 µg·mL^−1 of the peptide.

[2] = tested on: EC (HUVEC) adhesion to sVEGFR‐1; test: Cell adhesion assay, EC adhesion to sVEGFR‐1; format: cell-based, human; details: for effect on EC adhesion to sVEGFR‐1: peptide 20 µg·mL^−1 during adhesion, 37 °C, 1 h, 20 µg·mL^−1 VEGFR‐1/Fc coating, crystal violet, 540 nm, triplicate
Procedure: as §1, §2

[3] = target: T1, NRP‐1/VEGFR‐1 interaction (Homo sapiens, UniProt O14786); test: SPR, inhibition of NRP‐1/VEGFR‐1 interaction; format: binding; details: in words, NRP‐1 immobilized, VEGFR‐1 5 nM
T1 construct: purchased R&D Systems 3870-N1 (NRP-1); 321-FL-050 (VEGFR-1/Fc)
T1 sequence (O14786 22-644 isoform O14786-2 limits assumed): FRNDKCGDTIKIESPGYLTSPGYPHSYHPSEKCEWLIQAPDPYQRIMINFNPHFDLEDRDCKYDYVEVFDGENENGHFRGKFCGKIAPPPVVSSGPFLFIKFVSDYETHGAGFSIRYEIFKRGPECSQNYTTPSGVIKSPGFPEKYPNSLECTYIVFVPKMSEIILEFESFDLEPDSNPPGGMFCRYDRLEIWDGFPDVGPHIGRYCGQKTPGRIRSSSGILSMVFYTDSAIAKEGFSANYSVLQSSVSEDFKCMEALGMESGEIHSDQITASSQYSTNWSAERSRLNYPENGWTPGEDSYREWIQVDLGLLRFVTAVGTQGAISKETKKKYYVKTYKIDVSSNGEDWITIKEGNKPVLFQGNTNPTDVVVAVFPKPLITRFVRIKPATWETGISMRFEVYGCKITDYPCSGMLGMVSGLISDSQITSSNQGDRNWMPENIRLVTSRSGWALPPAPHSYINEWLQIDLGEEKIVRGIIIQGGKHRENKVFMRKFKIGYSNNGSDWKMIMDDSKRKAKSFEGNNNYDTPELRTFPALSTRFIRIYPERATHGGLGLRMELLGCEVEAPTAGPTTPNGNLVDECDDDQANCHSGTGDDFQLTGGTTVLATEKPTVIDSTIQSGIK
Procedure: Fig. 2 Flt2‐11 peptide inhibits NRP‐1 binding to VEGFR‐1. SPR analysis of the interaction between VEGFR‐1 and NRP‐1 in peptide absence (A), or presence of Flt2‐11 peptide (B) or scrambled Flt2‐11 peptide (C). NRP‐1 is immobilized on the sensor chip. (A) VEGFR‐1 is injected at different concentrations (from bottom to top: 0.6 nM, cyan; 1 nM, red; 2 nM, green; 2.5 nM, blue; and 5 nM, black). […] (B) VEGFR‐1 is injected at 5 nM together with peptide Flt2‐11 at different concentrations (from top to bottom: 0, black; 5 nM, blue; 15 nM, green; 45 nM, red; 100 nM, cyan; and 800 nM, magenta). […] (C) VEGFR‐1 is injected at 5 nM together with ‘scrambled’ Flt2‐11 peptide at different concentrations (from top to bottom: 0, black; 0.5 μM, blue; 950 μM, geen; and […], red).
SPR experiments were carried out using a BIACORE X system (Biacore AB, Uppsala, Sweden). […] The reaction was carried out in 20 mM sodium acetate at pH 5.0, which is about 2 points below the theoretical NRP‐1 isoelectric point calculated using the program pI‐tool. […]
RU express the mass concentration‐dependent changes in the observed SPR signal, that is, the refractive index on the sensor chip surface. Changes in this signal are determined by the interaction between the immobilized protein (i.e., either NRP‐1 or VEGFR‐1) with the analyte protein (i.e., VEGFR‐1/Fc, α5β1 integrin or semaphorin 3A). […]

[4] = tested on: HUVEC migration towards sVEGFR‐1; test: Migration assay (Boyden chamber) towards sVEGFR‐1; format: cell-based, human; details: peptide 40 µM, 30 min preincubation; sVEGFR‐1 5 µg·mL^−1; 2 h, 37 °C; triplicate
Procedure: as §1
Cell migration was analysed using Boyden chambers equipped with 8 µm pore diameter polycarbonate filters (Nuclepore, Whatman Incorporated, Clifton, NJ, USA). Human sVEGFR‐1 stimulus (5 µg·mL^−1) for chemotaxis was added to the lower chamber and HUVEC (1.5 × 10^5) were loaded into the upper chamber. […] Cells were then loaded into the Boyden chambers without removing the peptides, and migration towards sVEGFR‐1 was analysed. […] Cells from the upper surface were removed by wiping with a cotton swab, and the chemotactic response was determined by counting the migrating cells attached to the lower surface of the filter in 12 randomly selected microscopic fields (×200 magnification) per experimental condition. Quantification was performed by two independent observers, blinded to the examined condition.

Recombinant human NRP‐1 = target: T2, Recombinant human NRP‐1 (human, UniProt O14786 22-856); test: SPR; competition: NRP-1 immobilised by amine coupling; protein analyte at a fixed concentration (VEGFR-1/Fc 5 nM; α5β1 integrin 200 nM; semaphorin 3A 200 nM) injected together with peptide at different concentrations; HEPES-buffered saline; details: both partners purified
T2 construct: Neuropilin-1, human, recombinant soluble protein; see the vendor's datasheet (as far as I recall an extracellular fragment with a C-terminal His tag); also called Neuropilin‐1; soluble NRP‐1; source: bought: R&D Systems (3870‐N1)
T2 sequence (looked up): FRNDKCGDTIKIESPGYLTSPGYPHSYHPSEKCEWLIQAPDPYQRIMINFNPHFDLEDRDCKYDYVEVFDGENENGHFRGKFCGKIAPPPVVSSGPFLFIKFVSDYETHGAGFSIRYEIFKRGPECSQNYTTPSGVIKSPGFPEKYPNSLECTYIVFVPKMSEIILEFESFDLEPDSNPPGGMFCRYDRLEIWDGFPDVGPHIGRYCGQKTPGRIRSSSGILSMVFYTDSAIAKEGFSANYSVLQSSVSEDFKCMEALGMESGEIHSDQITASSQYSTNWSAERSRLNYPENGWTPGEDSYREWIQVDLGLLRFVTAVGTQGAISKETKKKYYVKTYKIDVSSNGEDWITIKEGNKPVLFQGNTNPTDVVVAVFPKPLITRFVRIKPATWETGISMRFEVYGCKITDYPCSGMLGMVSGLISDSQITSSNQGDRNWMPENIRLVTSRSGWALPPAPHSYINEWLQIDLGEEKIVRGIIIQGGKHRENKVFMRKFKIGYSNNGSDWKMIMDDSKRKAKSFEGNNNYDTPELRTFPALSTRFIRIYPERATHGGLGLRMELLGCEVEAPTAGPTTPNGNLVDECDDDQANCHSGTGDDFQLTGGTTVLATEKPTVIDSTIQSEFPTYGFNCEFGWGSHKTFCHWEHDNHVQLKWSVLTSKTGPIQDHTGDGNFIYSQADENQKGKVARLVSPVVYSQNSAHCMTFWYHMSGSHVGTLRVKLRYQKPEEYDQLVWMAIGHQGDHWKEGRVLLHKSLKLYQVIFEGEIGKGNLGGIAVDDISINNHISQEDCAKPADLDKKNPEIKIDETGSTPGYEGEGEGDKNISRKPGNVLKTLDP

[5] = ECs pretreated with soluble NRP‐1

Molecule: LVPLKIKNTFT [scrambled Flt2‐11, containing the same residues as Flt2‐11 but in a different order, reference compound]
- effect on EC adhesion to fibronectin ([1]; peptide 20 µg·mL^−1 during adhesion, 37 °C, 1 h, 20 µg·mL^−1 fibronectin coating, crystal violet, 540 nm, triplicate): does not affect EC adhesion
- effect on EC adhesion to sVEGFR‐1 [2]: does not affect EC adhesion
- effect on NRP‐1/VEGFR‐1 (sVEGFR‐1) interaction [3]: had no effect on NRP‐1/VEGFR‐1 interaction; also recorded: inhibits NRP‐1/VEGFR‐1 interaction only at high concentrations

Molecule: NITVT [Flt2‐5, Flt2‐11 peptide variant comprising the first five N‐terminal residues]
- effect on EC adhesion to sVEGFR‐1 [2]: same ability as the parent Flt2‐11 peptide to inhibit cell adhesion to; also recorded: able to significantly inhibit EC adhesion; also recorded: efficacy comparable to that of the parent eleven‐residue Flt2‐11 peptide
- effect on EC migration towards sVEGFR‐1 [4]: same ability as the parent Flt2‐11 peptide to inhibit cell adhesion to, and migration towards, sVEGFR‐1; also recorded: migration towards, sVEGFR‐1 (Fig. 6C), to a similar extent as the Flt2‐11 peptide; also recorded: efficacy comparable to that of the parent eleven‐residue Flt2‐11 peptide
- effect on NRP‐1/VEGFR‐1 (sVEGFR‐1) interaction [3]: inhibiting NRP‐1/sVEGFR‐1 interaction as well

Molecule: soluble NRP‐1: Recombinant human NRP‐1 (3870‐N1), R&D Systems
- effect of soluble NRP‐1 on EC adhesion to fibronectin [1, 5]: not detectably altered
- effect of soluble NRP‐1 on EC adhesion to sVEGFR‐1 [2, 5]: not detectably altered
- effect of soluble NRP‐1 on EC adhesion to sVEGFR‐1 ([2]; soluble NRP‐1 on coated plates prior to EC addition): impaired

B1: Flt_(2‐11) peptide (peptide)
peptide: NITVTLKKFPL
notes: Unlabelled peptide, as co-injected in the SPR experiments; also called peptide Flt_(2‐11); source: synthetic peptide (Primm, Milan)
- Ki (Recombinant human NRP‐1): 20 nM
